From patent US9770022B2, “N-cycloalkyl-N-[(bicyclylphenyl)methylene]-(thio)carboxamide derivatives” (BAYER CROPSCIENCE AG, priority 2013, dated 2017)
Like-named read-outs stand apart in the source and are kept apart here.

Key:
Puccinia recondita = assay: In vivo preventive test on Puccinia recondita (brown rust on wheat); conditions: evaluated 11 days after inoculation
Procedure: (§1) Solvent: 5% by volume of Dimethyl sulfoxide
(§2) • 10% by volume of Acetone Emulsifier: 1 μl of Tween® 80 per mg of active ingredient
(§3) The active ingredients are made soluble and homogenized in a mixture of Dimethyl sulfoxide/Acetone/Tween® 80 and then diluted in water to the desired concentration.
(§4) The young plants of wheat are treated by spraying the active ingredient prepared as described above. Control plants are treated only with an aqueous solution of Acetone/Dimethyl sulfoxide/Tween® 80.
After 24 hours, the plants are contaminated by spraying the leaves with an aqueous suspension of Puccinia recondita spores. The contaminated wheat plants are incubated for 24 hours at 20° C. and at 100% relative humidity and then for 10 days at 20° C. and at 70-80% relative humidity.
(§5) The test is evaluated 11 days after the inoculation. 0% means an efficacy which corresponds to that of the control plants while an efficacy of 100% means that no disease is observed.

Sphaerotheca fuliginea = assay: In vivo preventive test on Sphaerotheca fuliginea (powdery mildew on cucurbits); conditions: gherkin, evaluated 15 days after inoculation
Procedure: as §1, §2, §3
The young plants of gherkin are treated by spraying the active ingredient prepared as described above. Control plants are treated only with an aqueous solution of Acetone/Dimethyl sulfoxide/Tween® 80.
After 24 hours, the plants are contaminated by spraying the leaves with an aqueous suspension of Sphaerotheca fuliginea spores. The contaminated gherkin plants are incubated for 72 hours at 18° C. and at 100% relative humidity and then for 12 days at 20° C. and at 70-80% relative humidity.
The test is evaluated 15 days after the inoculation. 0% means an efficacy which corresponds to that of the control plants while an efficacy of 100% means that no disease is observed.

Septoria tritici = assay: In vivo preventive test on Septoria tritici (wheat); conditions: 500 ppm of active ingredient, evaluated 24 days after inoculation
Procedure: as §1, §2, §3, §4
After 24 hours, the plants are contaminated by spraying the leaves with an aqueous suspension of Septoria tritici spores. The contaminated wheat plants are incubated for 72 hours at 18° C. and at 100% relative humidity and then for 21 days at 20° C. and at 90% relative humidity.
The test is evaluated 24 days after the inoculation. 0% means an efficacy which corresponds to that of the control plants while an efficacy of 100% means that no disease is observed.

Uromyces appendiculatus = assay: In vivo preventive test on Uromyces appendiculatus (bean rust); conditions: for pest or weed control at 500 ppm: Uromyces appendiculatus, 264 h
Procedure: as §1, §2, §3
The young plants of bean are treated by spraying the active ingredient prepared as described above. Control plants are treated only with an aqueous solution of Acetone/Dimethyl sulfoxide/Tween® 80.
After 24 hours, the plants are contaminated by spraying the leaves with an aqueous suspension of Uromyces appendiculatus spores. The contaminated bean plants are incubated for 24 hours at 20° C. and at 100% relative humidity and then for 10 days at 20° C. and at 70-80% relative humidity.
as §5

Alternaria brassicae = assay: In vivo preventive test on Alternaria brassicae (leaf spot on radish); conditions: 500 ppm of active ingredient, spray 24 hours before inoculation, evaluated 6 days after inoculation
Procedure: as §1, §2, §3
The young plants of radish are treated by spraying the active ingredient prepared as described above. Control plants are treated only with an aqueous solution of Acetone/Dimethyl sulfoxide/Tween® 80.
After 24 hours, the plants are contaminated by spraying the leaves with an aqueous suspension of Alternaria brassicae spores. The contaminated radish plants are incubated for 6 days at 20° C. and at 100% relative humidity.
The test is evaluated 6 days after the inoculation. 0% means an efficacy which corresponds to that of the control plants while an efficacy of 100% means that no disease is observed.

Pyrenophora teres = assay: In vivo preventive test on Pyrenophora teres (barley); conditions: 500 ppm of active ingredient, evaluated 14 days after inoculation
Procedure: as §1, §2, §3
The young plants of barley are treated by spraying the active ingredient prepared as described above. Control plants are treated only with an aqueous solution of Acetone/Dimethyl sulfoxide/Tween® 80.
After 24 hours, the plants are contaminated by spraying the leaves with an aqueous suspension of Pyrenophora teres spores. The contaminated barley plants are incubated for 48 hours at 20° C. and at 100% relative humidity and then for 12 days at 20° C. and at 70-80% relative humidity.
The test is evaluated 14 days after the inoculation. 0% means an efficacy which corresponds to that of the control plants while an efficacy of 100% means that no disease is observed.

[1] = log P by HPLC on reversed-phase column (C 18), EEC Directive 79/831 Annex V.A8; type: physicochemical; conditions: for chromatographic logP: reversed-phase HPLC column (C 18)
Procedure: In table 1, the log P values were determined in accordance with EEC Directive 79/831 Annex V.A8 by HPLC (High Performance Liquid Chromatography) on a reversed-phase column (C 18), using the method described below:
Temperature: 40° C.; Mobile phases: 0.1% aqueous formic acid and acetonitrile; linear gradient from 10% acetonitrile to 90% acetonitrile.
Calibration was carried out using unbranched alkan-2-ones (comprising 3 to 16 carbon atoms) with known log P values (determination of the log P values by the retention times using linear interpolation between two successive alkanones). lambda-max-values were determined using UV-spectra from 200 nm to 400 nm and the peak values of the chromatographic signals.

[2] = 500 ppm of active ingredient, evaluated 11 days after inoculation
[3] = 500 ppm, evaluated 11 days after inoculation, Table F2 comparison, read-out: Efficacy
[4] = Table 1, HPLC C 18, 40° C., 0.1% aqueous formic acid and acetonitrile, gradient 10% to 90% acetonitrile, two values = mixture of endo and exo isomers

Compound | Efficacy (Puccinia recondita; 500 ppm of active ingredient) [%] | Efficacy (Sphaerotheca fuliginea; 500 ppm of active ingredient) [%] | Efficacy (Septoria tritici) [%] | Efficacy (Alternaria brassicae) [%] | Efficacy (Pyrenophora teres) [%] | logP [1, 4] | other results
Cn1nc(C(F)F)c(C(=O)N(Cc2ccccc2C2CC3CCC2C3)C2CC2)c1Cl (mixture of isomers) [I.02] | 88 | 98 | 86 |  |  |  | 
Cn1nc(C(F)F)c(C(=O)N(Cc2ccccc2C2CC3CCC2C3)C2CC2)c1F (mixture of isomers) [I.03] | 98 | 100 | 100 | 96 | 100 |  | Efficacy (Uromyces appendiculatus; [2]): 100%
O=C(c1ccsc1Br)N(Cc1ccccc1C1CC2CCC1C2)C1CC1 (mixture of isomers) [I.04] |  |  | 79 |  |  |  | 
Cn1cc(C(=O)N(Cc2ccccc2C2CC3CCC2C3)C2CC2)c(C(F)F)n1 (mixture of isomers) [I.05] | 94 | 95 | 86 | 80 | 71 |  | Efficacy (Uromyces appendiculatus; [2]): 91%
Cn1nc(C(F)F)c(C(=S)N(Cc2ccccc2C2CC3CCC2C3)C2CC2)c1F (mixture of isomers) [I.18] | 88 | 100 | 100 | 97 | 94 |  | Efficacy (Uromyces appendiculatus; [2]): 100%
Cn1cc(C(=S)N(Cc2ccccc2C2CC3CCC2C3)C2CC2)c(C(F)F)n1 (mixture of isomers) [I.19] | 88 | 95 | 98 | 75 |  |  | 
Cc1nn(C)c(F)c1C(=O)N(Cc1ccccc1C1CCCC1)C1CC1 [CMP4, N-(2-cyclopentylbenzyl)-N-cyclopropyl-5-fluoro-1,3-dimethyl-1H-pyrazole-4-carboxamide, reference compound] |  |  |  |  |  |  | pest or weed control at 500 ppm (Uromyces appendiculatus; [3]): < 40%
Cn1nc(C(F)F)c(C(=O)N(Cc2ccccc2C2CCCCC2)C2CC2)c1F [CMP5, N-(2-cyclohexylbenzyl)-N-cyclopropyl-3-(difluoromethyl)-5-fluoro-1-methyl-1H-pyrazole-4-carboxamide, reference compound] |  |  |  |  |  |  | pest or weed control at 500 ppm (Uromyces appendiculatus; [3]): < 40%
Cn1cc(C(=O)N(Cc2ccccc2C2CCCCC2)C2CC2)c(C(F)F)n1 [CMP6, N-(2-cyclohexylbenzyl)-N-cyclopropyl-3-(difluoromethyl)-1-methyl-1H-pyrazole-4-carboxamide, reference compound] |  |  |  |  |  |  | pest or weed control at 500 ppm (Uromyces appendiculatus; [3]): < 40%
CC(c1ccccc1C1CCCC1)N(C(=O)c1c(C(F)F)nn(C)c1Cl)C1CC1 (stereo not shown) [CMP7, 5-chloro-N-[1-(2-cyclopentylphenyl)ethyl]-N-cyclopropyl-3-(difluoromethyl)-1-methyl-1H-pyrazole-4-carboxamide, reference compound] |  |  |  |  |  |  | pest or weed control at 500 ppm (Uromyces appendiculatus; [3]): < 40%
CC(c1ccccc1C1=CCCCC1)N(C(=O)c1c(C(F)F)nn(C)c1F)C1CC1 (stereo not shown) [CMP8, N-{1-[2-(cyclohex-1-en-1-yl)phenyl]ethyl}-N-cyclopropyl-3-(difluoromethyl)-5-fluoro-1-methyl-1H-pyrazole-4-carboxamide, reference compound] |  |  |  |  |  |  | pest or weed control at 500 ppm (Uromyces appendiculatus; 500 ppm, evaluated 11 days after inoculation, Table F3 comparison, read-out: Efficacy): < 55%
Cc1nn(C)c(F)c1C(=O)N(Cc1ccccc1C1CC2CCC1C2)C1CC1 (stereo not shown) [I.01, N-[2-(bicyclo[2.2.1]hept-2-yl)benzyl]-N-cyclopropyl-5-fluoro-1,3-dimethyl-1H-pyrazole-4-carboxamide] | 100 | 100 | 100 |  | 100 | 4.24 | pest or weed control at 500 ppm (Uromyces appendiculatus; read-out: Efficacy, 500 ppm of active ingredient, evaluated 11 days after inoculation): 100%; pest or weed control at 500 ppm (Uromyces appendiculatus; read-out: Efficacy, 500 ppm, evaluated 11 days after inoculation, Table F2 comparison): ≥ 80%; chromatographic logP [1, 4]: 4.16; Efficacy (Sphaerotheca fuliginea; 100 ppm, Table E2 comparison): total protection
Cn1nc(C(F)F)c(C(=S)N(Cc2ccccc2C2CC3CCC2C3)C2CC2)c1Cl (stereo not shown) [I.06] | 88 | 98 | 88 |  | 75 | 5.45 | Efficacy (Uromyces appendiculatus; [2]): 99%
Cn1nc(C(F)F)c(C(=O)N(Cc2ccccc2C23CCCC2C3(Cl)Cl)C2CC2)c1F (stereo not shown) [I.07, N-cyclopropyl-N-[2-(6,6-dichlorobicyclo[3.1.0]hex-1-yl)benzyl]-3-(difluoromethyl)-5-fluoro-1-methyl-1H-pyrazole-4-carboxamide] | 94 | 100 | 94 |  | 81 |  | pest or weed control at 500 ppm (Uromyces appendiculatus; 500 ppm of active ingredient, evaluated 11 days after inoculation, read-out: Efficacy): 100%; chromatographic logP [1, 4]: 4.46
Cn1nc(C(F)F)c(C(=O)N(Cc2cc(Cl)ccc2C23CCCC2C3(Cl)Cl)C2CC2)c1F (stereo not shown) [I.08] | 88 | 100 | 94 |  | 81 | 4.85 | Efficacy (Uromyces appendiculatus; [2]): 99%
Cn1nc(C(F)F)c(C(=O)N(Cc2cc(C34CCCC3C4(Cl)Cl)ccc2Cl)C2CC2)c1F (stereo not shown) [I.09] |  | 100 | 100 | 75 | 88 | 4.90 | Efficacy (Uromyces appendiculatus; [2]): 84%
Cn1nc(C(F)F)c(C(=O)N(Cc2ccccc2C23CCCCC2C3(Cl)Cl)C2CC2)c1F (stereo not shown) [I.10] | 88 | 100 | 88 |  |  | 4.82 | 
Cn1nc(C(F)F)c(C(=O)N(Cc2cc(Cl)ccc2C23CCCCC2C3(Cl)Cl)C2CC2)c1F (stereo not shown) [I.11] | 75 | 100 | 75 | 75 |  | 5.22 | 
Cn1nc(C(F)F)c(C(=O)N(Cc2cc(C34CCCCC3C4(Cl)Cl)ccc2Cl)C2CC2)c1F (stereo not shown) [I.12] |  | 100 | 94 | 97 | 75 | 5.25 | 
Cn1nc(C(F)F)c(C(=O)N(Cc2cc(Cl)ccc2C23CCCCCC2C3(Cl)Cl)C2CC2)c1F (stereo not shown) [I.14] | 75 | 100 | 94 | 83 |  | 5.54 | 
Cn1cc(C(=O)N(Cc2ccccc2C2=CC3CCC2(C)C3(C)C)C2CC2)c(C(F)(F)F)c1 (stereo not shown) [I.22] |  |  |  |  |  | 5.72 | 
Cn1nc(C(F)F)c(C(=O)N(Cc2cc(CC3C4CCC(C4)C3(C)C)ccc2C(C)(C)C)C2CC2)c1F (stereo not shown) [I.23] |  |  |  |  |  | 7.09 | Efficacy (Puccinia recondita; at 100 ppm (note 1)): 79^(1) %; Efficacy (Sphaerotheca fuliginea; at 100 ppm (note 1)): 100^(1) %
c1ccc(C2CC3CCC2C3)c(CNC2CC2)c1 (stereo not shown) [IIa.1, N-[2-(bicyclo[2.2.1]hept-2-yl)benzyl]cyclopropanamine] |  |  |  |  |  |  | chromatographic logP ([1]; Table 2 (amines IIa), same HPLC method, broad signal): 2.01
